The values below come from PMC4685510, “A Cell Biologist’s Field Guide to Aurora Kinase Inhibitors” (Frontiers in Oncology, 2015).

What all share (assay): biochemical
Holding throughout (type): biochemical

Assay [1] has as its target 363 human kinases (including Aurora A/B/C) (Homo sapiens, UniProt Q9Y6E0). Particulars: MST3/STK24; for remaining activity at 0.1 µM: 100 nM; for remaining activity at 0.1 µM / remaining activity at 0.5 µM: read-out: % Enzyme Activity (relative to DMSO controls).
Text: (§1) However, the Aurora A/B selectivity ratios derived from our in vitro and in vivo data can be compared to prioritize inhibitors.
Assay [2] deals with 363 human kinases (including Aurora A/B/C) (Homo sapiens, UniProt Q9Y243). The conditions noted are these: AKT3, [ATP] 50 µM; for remaining activity at 0.1 µM: 100 nM; for remaining activity at 0.1 µM / remaining activity at 0.5 µM: read-out: % Enzyme Activity (relative to DMSO controls).
Chain of 363 human kinases (including Aurora A/B/C) (Homo sapiens, UniProt Q9Y243) (Q9Y243 whole entry): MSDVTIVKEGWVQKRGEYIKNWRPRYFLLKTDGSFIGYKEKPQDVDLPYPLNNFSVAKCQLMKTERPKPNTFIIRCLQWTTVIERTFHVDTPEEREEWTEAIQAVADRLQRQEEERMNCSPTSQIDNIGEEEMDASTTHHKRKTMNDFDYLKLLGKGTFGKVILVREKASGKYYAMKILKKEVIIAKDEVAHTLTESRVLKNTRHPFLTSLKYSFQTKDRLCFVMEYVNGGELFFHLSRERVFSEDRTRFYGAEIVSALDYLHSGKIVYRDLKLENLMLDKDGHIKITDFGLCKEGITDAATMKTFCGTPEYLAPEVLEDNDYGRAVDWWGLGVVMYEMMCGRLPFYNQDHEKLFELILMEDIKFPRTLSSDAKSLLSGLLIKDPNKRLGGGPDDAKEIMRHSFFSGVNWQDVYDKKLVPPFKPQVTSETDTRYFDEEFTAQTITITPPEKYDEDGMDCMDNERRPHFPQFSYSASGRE
Text: as §1
Assay [3] concerns the target T1, 363 human kinases (including Aurora A/B/C) (Homo sapiens, UniProt P35626).
T1 sequence (P35626 1-688): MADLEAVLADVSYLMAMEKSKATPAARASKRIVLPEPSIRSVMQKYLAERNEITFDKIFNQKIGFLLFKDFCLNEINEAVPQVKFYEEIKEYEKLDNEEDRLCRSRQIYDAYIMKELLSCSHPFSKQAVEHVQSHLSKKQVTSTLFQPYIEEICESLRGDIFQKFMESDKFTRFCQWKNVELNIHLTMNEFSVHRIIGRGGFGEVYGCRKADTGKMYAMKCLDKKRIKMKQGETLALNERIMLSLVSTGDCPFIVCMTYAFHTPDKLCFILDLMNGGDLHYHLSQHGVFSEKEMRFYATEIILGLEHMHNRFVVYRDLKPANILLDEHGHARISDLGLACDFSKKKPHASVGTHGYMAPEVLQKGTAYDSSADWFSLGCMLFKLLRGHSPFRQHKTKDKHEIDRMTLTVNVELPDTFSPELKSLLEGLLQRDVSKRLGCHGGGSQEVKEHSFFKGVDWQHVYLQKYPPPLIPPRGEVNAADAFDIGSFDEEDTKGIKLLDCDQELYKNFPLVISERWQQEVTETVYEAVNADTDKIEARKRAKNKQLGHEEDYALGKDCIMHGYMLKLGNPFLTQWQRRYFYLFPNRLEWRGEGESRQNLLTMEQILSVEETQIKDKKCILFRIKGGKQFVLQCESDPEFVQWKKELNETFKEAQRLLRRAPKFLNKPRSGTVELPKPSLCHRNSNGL
Particulars: GRK3; for remaining activity at 0.1 µM: 100 nM; for remaining activity at 0.1 µM / remaining activity at 0.5 µM: read-out: % Enzyme Activity (relative to DMSO controls).
Text: as §1

The target of assay [4] is T2, 363 human kinases (including Aurora A/B/C) (Homo sapiens, UniProt P36897).
T2 sequence (P36897 34-503): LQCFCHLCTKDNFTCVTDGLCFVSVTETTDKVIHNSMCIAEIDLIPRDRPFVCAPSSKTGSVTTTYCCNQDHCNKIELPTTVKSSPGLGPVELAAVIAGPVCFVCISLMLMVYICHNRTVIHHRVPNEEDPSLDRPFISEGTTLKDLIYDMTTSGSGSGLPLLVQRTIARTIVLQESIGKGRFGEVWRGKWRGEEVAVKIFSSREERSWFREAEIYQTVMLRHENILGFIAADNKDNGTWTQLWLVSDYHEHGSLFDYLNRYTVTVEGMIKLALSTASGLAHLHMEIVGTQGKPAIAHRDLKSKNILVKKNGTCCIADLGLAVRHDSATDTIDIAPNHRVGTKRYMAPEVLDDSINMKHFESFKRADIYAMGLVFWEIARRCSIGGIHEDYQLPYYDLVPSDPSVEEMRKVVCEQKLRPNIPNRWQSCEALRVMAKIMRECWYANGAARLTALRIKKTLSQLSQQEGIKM
The conditions noted are these: ALK5/TGFBR1, [ATP] 100 µM; for remaining activity at 0.1 µM: 100 nM; for remaining activity at 0.1 µM / remaining activity at 0.5 µM: read-out: % Enzyme Activity (relative to DMSO controls).
Text: as §1

The target of assay [5] is T3, 363 human kinases (including Aurora A/B/C) (Homo sapiens, UniProt Q99759).
T3 sequence (Q99759 1-626): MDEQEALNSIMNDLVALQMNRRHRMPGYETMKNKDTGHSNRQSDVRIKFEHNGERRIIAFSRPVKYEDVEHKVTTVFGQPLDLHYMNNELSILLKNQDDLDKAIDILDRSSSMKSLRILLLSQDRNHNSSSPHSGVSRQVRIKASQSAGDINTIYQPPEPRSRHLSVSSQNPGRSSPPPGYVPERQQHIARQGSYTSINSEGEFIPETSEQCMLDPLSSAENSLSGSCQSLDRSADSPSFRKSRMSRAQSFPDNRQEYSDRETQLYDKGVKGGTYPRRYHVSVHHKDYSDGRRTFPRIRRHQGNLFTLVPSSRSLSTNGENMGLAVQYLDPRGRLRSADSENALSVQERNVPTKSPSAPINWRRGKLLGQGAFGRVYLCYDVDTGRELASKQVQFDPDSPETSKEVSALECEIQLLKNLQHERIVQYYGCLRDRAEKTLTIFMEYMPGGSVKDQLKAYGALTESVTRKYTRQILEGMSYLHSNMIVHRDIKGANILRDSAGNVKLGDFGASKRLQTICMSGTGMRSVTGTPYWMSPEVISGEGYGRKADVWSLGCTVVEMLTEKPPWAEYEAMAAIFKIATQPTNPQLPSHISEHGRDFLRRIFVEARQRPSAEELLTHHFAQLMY
The conditions noted are these: MEKK3; for remaining activity at 0.1 µM: 100 nM; for remaining activity at 0.1 µM / remaining activity at 0.5 µM: read-out: % Enzyme Activity (relative to DMSO controls).
Text: as §1

The target in assay [6] is T4, 363 human kinases (including Aurora A/B/C) (Homo sapiens, UniProt Q92630).
T4 sequence (Q92630 1-601): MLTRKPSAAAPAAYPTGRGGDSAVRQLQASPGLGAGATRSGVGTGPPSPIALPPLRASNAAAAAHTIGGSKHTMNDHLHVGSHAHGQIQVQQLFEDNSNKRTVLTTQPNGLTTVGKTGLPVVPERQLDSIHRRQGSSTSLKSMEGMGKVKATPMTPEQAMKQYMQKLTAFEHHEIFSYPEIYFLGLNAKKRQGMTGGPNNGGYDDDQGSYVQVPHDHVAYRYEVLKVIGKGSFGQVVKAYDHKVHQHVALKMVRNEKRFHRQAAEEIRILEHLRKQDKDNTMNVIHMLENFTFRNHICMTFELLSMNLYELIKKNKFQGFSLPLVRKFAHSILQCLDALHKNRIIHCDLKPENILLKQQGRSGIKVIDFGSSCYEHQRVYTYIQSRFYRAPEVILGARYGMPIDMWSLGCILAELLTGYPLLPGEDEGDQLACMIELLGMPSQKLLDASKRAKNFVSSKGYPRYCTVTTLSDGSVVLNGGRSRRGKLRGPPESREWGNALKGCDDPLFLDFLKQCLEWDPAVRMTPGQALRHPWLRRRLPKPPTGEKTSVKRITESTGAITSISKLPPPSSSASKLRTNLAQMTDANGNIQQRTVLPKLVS
Particulars: DYRK2, [ATP] 5 µM; for remaining activity at 0.1 µM: 100 nM; for remaining activity at 0.1 µM / remaining activity at 0.5 µM: read-out: % Enzyme Activity (relative to DMSO controls).
Text: as §1

Assay [7] has as its target 363 human kinases (including Aurora A/B/C) (Homo sapiens, UniProt Q6P2M8). The conditions noted are these: CAMK1b, [ATP] 5 µM; for remaining activity at 0.1 µM: 100 nM; for remaining activity at 0.1 µM / remaining activity at 0.5 µM: read-out: % Enzyme Activity (relative to DMSO controls).
Text: as §1
In assay [8] the target is 363 human kinases (including Aurora A/B/C) (Homo sapiens, UniProt Q9P1W9). The conditions noted are these: PIM2; for remaining activity at 0.1 µM: 100 nM; for remaining activity at 0.1 µM / remaining activity at 0.5 µM: read-out: % Enzyme Activity (relative to DMSO controls).
Chain of 363 human kinases (including Aurora A/B/C) (Homo sapiens, UniProt Q9P1W9) (Q9P1W9 whole entry): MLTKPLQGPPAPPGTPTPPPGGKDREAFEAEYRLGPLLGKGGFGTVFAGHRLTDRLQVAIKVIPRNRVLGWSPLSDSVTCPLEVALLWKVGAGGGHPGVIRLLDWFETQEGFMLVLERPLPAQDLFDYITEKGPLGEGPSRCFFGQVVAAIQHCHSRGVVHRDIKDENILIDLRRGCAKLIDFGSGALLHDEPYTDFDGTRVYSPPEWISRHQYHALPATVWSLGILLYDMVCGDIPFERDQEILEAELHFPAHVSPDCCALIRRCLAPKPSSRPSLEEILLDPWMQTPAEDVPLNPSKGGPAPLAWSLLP
Text: as §1

Chain of 363 human kinases (including Aurora A/B/C) (Homo sapiens, UniProt Q6P2M8) (Q6P2M8 whole entry): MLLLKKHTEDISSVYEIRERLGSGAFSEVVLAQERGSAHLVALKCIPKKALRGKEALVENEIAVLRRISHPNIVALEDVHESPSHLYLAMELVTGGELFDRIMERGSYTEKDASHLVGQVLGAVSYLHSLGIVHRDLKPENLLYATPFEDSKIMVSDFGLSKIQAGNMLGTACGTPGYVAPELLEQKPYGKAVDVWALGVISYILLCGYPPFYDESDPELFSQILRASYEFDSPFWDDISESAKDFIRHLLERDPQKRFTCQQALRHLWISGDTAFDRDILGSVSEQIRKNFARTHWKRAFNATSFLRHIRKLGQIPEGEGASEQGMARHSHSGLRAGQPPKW
Chain of 363 human kinases (including Aurora A/B/C) (Homo sapiens, UniProt Q9Y6E0) (Q9Y6E0 whole entry): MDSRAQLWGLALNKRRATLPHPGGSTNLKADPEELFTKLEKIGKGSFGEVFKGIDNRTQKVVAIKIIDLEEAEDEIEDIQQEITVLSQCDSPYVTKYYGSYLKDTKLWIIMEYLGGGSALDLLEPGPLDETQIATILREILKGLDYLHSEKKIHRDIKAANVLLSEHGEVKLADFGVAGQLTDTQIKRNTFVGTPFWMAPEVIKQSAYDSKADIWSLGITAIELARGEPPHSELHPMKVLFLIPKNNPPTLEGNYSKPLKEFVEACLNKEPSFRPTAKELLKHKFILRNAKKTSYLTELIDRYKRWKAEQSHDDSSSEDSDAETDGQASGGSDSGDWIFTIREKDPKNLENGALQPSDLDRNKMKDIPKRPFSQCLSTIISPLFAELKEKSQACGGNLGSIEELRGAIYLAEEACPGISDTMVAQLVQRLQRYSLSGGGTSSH

For `CCn1cc(-c2ccnc3[nH]c(-c4cccc(CN(C)C)c4)cc23)c(-c2ccc(NC(=O)N(C)C)cc2)n1` [GSK1070916], the remaining activity at 0.1 µM was determined as 85.4% in assay [1]; 94.8% in assay [2]; 98.2% in assay [3]; 106% in assay [4]; 97.2% in assay [5]; 108% in assay [6]. Besides, the remaining activity at 0.1 µM in assay [7] stood at 99.4%; in assay [8] it was 87.2%.
Turning to `O=C(O)[C@]1(Cc2cccc(Nc3nccs3)n2)CC[C@@H](Oc2cccc(Cl)c2F)CC1` [MK-5108], the remaining activity at 0.1 µM in assay [1] came to 102%; in assay [2], 97.4%; in assay [3], 101%; in assay [4] it was 116%; in assay [5], 96.3%; in assay [6] it was 82%. In addition, the remaining activity at 0.1 µM in assay [7] was determined as 89.2%; in assay [8], 104%. In addition, the remaining activity at 0.5 µM turned out to be 87.9% in assay [1] (500 nM); 99.1% in assay [2] (500 nM); 101% in assay [3] (500 nM); 130% in assay [4] (500 nM); 117% in assay [5] (500 nM); 56.2% in assay [6] (500 nM). Moreover, the remaining activity at 0.5 µM in assay [7] (500 nM) was determined as 102%; in assay [8] (500 nM), 88.5%.
With `O=C(c1cccc(Cl)c1F)N1CCN(Cc2cccc(Nc3nccs3)n2)CC1` [MK-8745], the “% Enzyme Activity (relative to DMSO controls)” value is 84.91% in assay [1] (500 nM); 98.52% in assay [2] (500 nM); 99.18% in assay [3] (500 nM); 109.55% in assay [4] (500 nM); 111.88% in assay [5] (500 nM); 138.31% in assay [6] (500 nM). Moreover, the “% Enzyme Activity (relative to DMSO controls)” value in assay [7] (500 nM) turned out to be 98.69%; in assay [8] (500 nM), 93.64%. The remaining activity at 0.5 µM was found to be 85.3% in assay [1] (500 nM); 98.6% in assay [2] (500 nM); 101% in assay [3] (500 nM); 110% in assay [4] (500 nM); 114% in assay [5] (500 nM); 147% in assay [6] (500 nM). The remaining activity at 0.5 µM came out at 100% in assay [7] (500 nM) and 93.8% in assay [8] (500 nM).
